From PMC10564737, “Structure-based design of a phosphotyrosine-masked covalent ligand targeting the E3 ligase SOCS2” (Nature Communications, 2023) come the findings set out here.

Where “and” joins values, the source holds several entries; their conditions need not be identical. Equal entries are not always repeated.

For experiment [1], the target named is T1, HiBiT-SOCS2 fusion in HeLa cells (Homo sapiens, UniProt O14508).
T1 construct: encoding SOCS2 (32–198) in pBiT3.1-N expression vector; expressed in transfected cells; host or cells: HeLa
T1 sequence (O14508 32-198): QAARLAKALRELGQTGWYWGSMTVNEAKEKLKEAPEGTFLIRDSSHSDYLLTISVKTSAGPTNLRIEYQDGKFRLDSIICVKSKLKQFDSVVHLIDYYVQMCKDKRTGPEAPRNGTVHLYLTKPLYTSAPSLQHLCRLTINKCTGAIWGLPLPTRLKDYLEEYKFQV
T1 sequence (Q15370 whole entry, further chain, the tested form may be a part): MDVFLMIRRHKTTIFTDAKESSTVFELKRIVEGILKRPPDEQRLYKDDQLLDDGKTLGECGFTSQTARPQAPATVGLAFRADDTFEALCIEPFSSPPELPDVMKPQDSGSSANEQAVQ
T1 sequence (Q15369 whole entry, further chain, the tested form may be a part): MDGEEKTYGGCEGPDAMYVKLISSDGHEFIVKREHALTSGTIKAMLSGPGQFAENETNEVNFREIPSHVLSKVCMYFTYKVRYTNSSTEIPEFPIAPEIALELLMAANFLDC
Nature of the experiment: Split-NanoLuc CETSA, live-cell mode. Also noted: Produrg CETSA screening, raw signal: reference not given here. Format: cell-based. Particulars: for Produrg CETSA screening, raw signal: 50uM 20hrs; for ΔT / ΔT, individual replicates n1-n3: Prodrug screen CETSA; for ΔT: live HeLa cells, 50 μM, 20 h, Mean n = 3; for ΔT, individual replicates n1-n3: single replicates. How it is done:
One of the challenges with small-molecule binders displaying on-target activity with recombinant proteins, is to translate their utility to a cellular context. […] One of the advantages of CETSA is that target engagement can be monitored without the need for the development of a cell-permeable tracer molecule.
We utilized CETSA in a live-cell mode to evaluate the efficacy and rank the different prodrugs. We treated live HeLa cells with 50 μM compound (prodrugs) for 20 h and monitored Tagg shift as a proxy for the combo of prodrug permeability and unmasking (Fig. 4d). […] The observation could be because the POM group unmasking requires only esterase unlike the reliance of compounds 21–23 on esterase and phosphoramidase for unmasking an aryloxy phosphoramidate group.
N-terminal HiBiT-SOCS2 fusion was generated by encoding SOCS2 (32–198) in pBiT3.1-N expression vector (Promega). The transfection and target engagement assay were performed by modifying a NanoLuc target engagement protocol (Promega) with some small modifications. Briefly, HiBiT-SOCS2 fusion construct was transfected into HeLa cells using FuGENE HD (Promega) according to the manufacturer’s protocol. HiBiT-SOCS2 fusion construct was diluted into Transfection Carrier DNA (Promega) at a mass ratio of 1:100 or 1:10 for permeabilised and live-cell CETSA respectively. FuGENE HD was added at a ratio of 1:3 (μg DNA: μL FuGENE HD). 1 part (vol) of FuGENE HD complexes thus formed were combined with 20 parts (vol) of HeLa cells suspended at a density of 2 × 10^5 cells/mL, followed by incubation in a humidified, 37 °C + 5% CO2 incubator. After 20 h of incubation HeLa cells were detached and resuspended at a density of 2.5 × 10^5 cells/mL in Opti-MEM media without serum or phenol red but supplemented with protease inhibitor cocktail (Roche). Compounds stocks were added to cell suspension to maintain a final DMSO concentration of 1%. For the permeabilised assay format, 96-well PCR plates (Thermo) were pre-treated with digitonin to have a final well concentration of 50 μg/ml. 50 μl Opti-MEM cell suspension was then aliquoted to each well of the 96-well plate. The plates are then covered with microporous tape sheet (Qiagen) prior to incubation in a humidified, 37 °C + 5% CO2 incubator. Post-incubation we heat the PCR plates in 16-point temperature (split across two runs) curve spanning degrees 40-72 °C temperature span (CFX96 Touch Real-Time PCR Detection System, BioRad). The thermal cycler block was allowed to rise to the designated temperatures prior to placement of the PCR plates into the heating block and heat treatment for 3 min. After incubating the plates at room temperature for over 3 min, 50 μl of the Nano-Glo HiBiT Lytic mix (Promega) was added to each well. Samples were mixed by pipetting and placing the plate on an orbital shaker (600 rpm) for 5 min. 20 μl of the samples (in triplicates) were transferred to a AlphaPlate-384 plate (Perkin Elmer). Luminescence was recorded with GloMax Discover Microplate Reader (Promega). To generate apparent Tagg curves, the data is first converted to percent stabilized by relating the observed luminescence to the luminescence of the lowest temperature (40 °C) for that given sample. Data are then fitted to obtain apparent Tagg values using the Boltzmann Sigmoid equation using Graphpad Prism 9.

Experiment [2] addresses T2, SBC2 (Homo sapiens, UniProt O14508).
T2 construct: SOCS2 (amino acids 32–198); His6 (N, cleaved yes); made in house; host or cells: E. coli BL21(DE3)
The experiment is described as follows: Covalent fluorescence polarization (FP) probe displacement assay. Format: binding. Particulars: SBC2 titration with 10 nM probe; read-out: KD of fluorescent probe measured with FP. The text has this:
With the specific covalent modification of Cys111 established, we decided to fully characterize MN551 as a covalent SOCS2 inhibitor. […] (Fig. 2g, h, Supplementary Fig. 9). Due to the covalent nature of the competing inhibitor, a time-dependent reduction in the fraction of protein-bound probe is observed. […] This value illustrates reasonable specificity for a covalent inhibitor, with nonetheless scope for future optimization. In addition to characterizing the kinetic covalency parameters, we have also assessed the stability of the MN551 by monitoring its reactivity (half-life >70 min) with reduced glutathione (GSH) (Supplementary Fig. 10)[35].
To monitor the SBC2-ligand binding kinetics we designed a fluorescein-labeled small-molecule probe - compound 26. The fluorescence polarization (anisotropy) of a threefold serial dilution of 50 µM SBC2 in 10 nM of the probe in 100 mM HEPES pH 7.5, 50 mM NaCl, 0.5 mM TCEP, 2% DMSO was measured to determine the KL (Supplementary Fig. 9A) (BMG Labtech PHERAstar – firmware v1.33). Protein titration and the curves were fitted using GraphPad Prism 9, using one-site fitting models to determine the probe binding constant, KL. Samples were run in triplicate in 384 well plates, using a total volume per well of 16 μL. The bound fraction of the probe is measure using the equation:1 Fb=Af−A/Af−Ab Where,
A time-dependent reduction in probe anisotropy were measured for a 2-fold serial dilution of […] compound MN551 in 10 nM probe +300 μM SBC2. To determine the initial reversible binding affinity, the initial bound fraction of the probe at time = 0, Fbo (the y-intercept in Fb v/s Time plot, Supplementary Fig. 9B) was plotted against MN551 concentration, and the obtained IC50 is then converted to Ki (Supplementary Fig. 9C)[17]. The slope from Fb versus time graph when divided by Fbo gives rate of covalency, kobs. A plot of kobs v/s MN551 concentration using Michaelis–Menten model of GraphPad Prism 9, provides the parameters kinact (maximum potential rate of inactivation) and KI (concentration of MN551 at which kobs = kinact/2) (Supplementary Fig. 9D, E).
The observed first-order rate constant, kobs is related to KI and kinact by the equation:2 kobs=kinactI/KI+I
At [I]«[KI] the above equation is converted to3 […]
The slope from the plot of kobs against concentration of MN551 gives us the covalent efficiency parameter kinact/KI (Supp Fig. 9F)[30],[33].
For orientation: Fluorescence polarisation rises when a labelled molecule tumbles more slowly, as on binding a larger partner.

T2 sequence (O14508 32-198): as the sequence (O14508 32-198) above
T2 sequence (Q15370 1-104 partner limits assumed): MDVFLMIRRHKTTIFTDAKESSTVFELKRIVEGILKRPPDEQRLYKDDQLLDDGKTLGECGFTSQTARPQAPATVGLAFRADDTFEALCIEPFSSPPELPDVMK
T2 sequence (Q15369 17-112 partner limits assumed): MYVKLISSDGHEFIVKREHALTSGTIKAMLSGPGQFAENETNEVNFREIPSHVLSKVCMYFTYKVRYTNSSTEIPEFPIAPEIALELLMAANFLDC

Consider `C[C@H](NP(=O)(Oc1ccc(C[C@H](NC(=O)Cc2ccc(F)cc2)C(=O)NCc2cccc(NC(=O)CCl)c2)cc1)Oc1cccc2ccccc12)C(=O)OCc1ccccc1` (stereo partly drawn) [Compound 23], for which the “Produrg CETSA screening, raw signal” value is 69363 and 80806 and 112884 in experiment [1] (n=1, temperature point 5 of 16, temperature not given); 96967 and 118352 and 144445 in experiment [1] (n=1, temperature point 6 of 16, temperature not given); 143643 and 166973 and 192783 in experiment [1] (n=1, temperature point 7 of 16, temperature not given); 106216 and 128406 and 210436 in experiment [1] (n=1, temperature point 8 of 16, temperature not given); 167377 and 176709 and 206363 in experiment [1] (n=1, temperature point 9 of 16, temperature not given); 186703 and 236478 and 300868 in experiment [1] (n=1, temperature point 10 of 16, temperature not given). Further, the “Produrg CETSA screening, raw signal” value is 231104 and 290174 and 305287 in experiment [1] (n=1, temperature point 11 of 16, temperature not given); 354321 and 369048 and 401655 in experiment [1] (n=1, temperature point 12 of 16, temperature not given); 341517 and 349800 and 466508 in experiment [1] (n=1, temperature point 13 of 16, temperature not given); 353173 and 365195 and 397047 in experiment [1] (n=1, temperature point 14 of 16, temperature not given); 381815 and 407106 and 448233 in experiment [1] (n=1, temperature point 15 of 16, temperature not given); 423512 and 424780 and 453391 in experiment [1] (n=1, temperature point 16 of 16, temperature not given). Besides, the “Produrg CETSA screening, raw signal” value is 81542 and 84696 and 155298 in experiment [1] (n=2, temperature point 1 of 16, temperature not given); 72558 and 139894 and 123324 in experiment [1] (n=2, temperature point 2 of 16, temperature not given); 87834 and 139601 and 100567 in experiment [1] (n=2, temperature point 5 of 16, temperature not given); 98775 and 175976 and 137381 in experiment [1] (n=2, temperature point 6 of 16, temperature not given); 152633 and 181253 and 191364 in experiment [1] (n=2, temperature point 7 of 16, temperature not given); 176015 and 229873 and 213107 in experiment [1] (n=2, temperature point 8 of 16, temperature not given). Further, the “Produrg CETSA screening, raw signal” value in experiment [1] (n=2, temperature point 9 of 16, temperature not given) is 189127 and 214945 and 246245; in experiment [1] (n=2, temperature point 10 of 16, temperature not given) it was 212633 and 267460 and 262658; in experiment [1] (n=2, temperature point 11 of 16, temperature not given), 244590 and 322245 and 338306; in experiment [1] (n=2, temperature point 12 of 16, temperature not given), 338485 and 407495 and 420421; in experiment [1] (n=2, temperature point 13 of 16, temperature not given), 375692 and 455999 and 437696; in experiment [1] (n=2, temperature point 14 of 16, temperature not given), 432064 and 448169 and 475813. For the same molecule, the “Produrg CETSA screening, raw signal” value was 397604 and 474479 and 457905 in experiment [1] (n=2, temperature point 15 of 16, temperature not given); 400496 and 479946 and 527841 in experiment [1] (n=2, temperature point 16 of 16, temperature not given); 44604 in experiment [1] (n=3, Temp, 0C 54.1); 39796 and 47150 and 51627 in experiment [1] (n=3, Temp, 0C 55); 45790 and 51042 and 62078 in experiment [1] (n=3, Temp, 0C 56); 31202 and 38155 and 39301 in experiment [1] (n=3, Temp, 0C 57.1). Also, the “Produrg CETSA screening, raw signal” value in experiment [1] (n=3, Temp, 0C 59.2) was 28243 and 27436 and 39233; in experiment [1] (n=3, Temp, 0C 62.3), 17330 and 19655 and 29378; in experiment [1] (n=3, Temp, 0C 66.1), 14860 and 24999 and 29256; in experiment [1] (n=3, Temp, 0C 71.1), 14600 and 19386 and 22788. Besides, the ΔT in experiment [1] was 2.28 oC. Further, in experiment [1], the “ΔT, individual replicates n1-n3” value was 0.90 oC and 3.19 oC and 2.74 oC.
Consider `CC(C)OC(=O)[C@H](C)NP(=O)(Oc1ccc(C[C@H](NC(=O)Cc2ccc(F)cc2)C(=O)NCc2cccc(NC(=O)CCl)c2)cc1)Oc1cccc2ccccc12` (stereo partly drawn) [Compound 22], for which, in experiment [1], the ΔT is on record as 2.37 oC; the “ΔT, individual replicates n1-n3” value was 2.11 oC and 3.40 oC and 1.59 oC.
Take `Cc1cc(CNC(=O)[C@H](Cc2ccc(OP(=O)(O)O)cc2)NC(=O)Cc2ccc(F)cc2OCCNC(=S)Nc2ccc3c(c2)C(=O)OC32c3ccc(O)cc3Oc3cc(O)ccc32)ccc1Cl` [Compound 26]: the dissociation constant (Kd) (commonly the concentration at which binding is half-saturated) in experiment [2] was 0.0776 µM.
